# Data: patent US6288101A, “Imidazoles with serotonin receptor binding activity” (Virginia Commonwealth University, priority 1999, dated 2001)
# Target: T1, 5-HT1D -like receptor (Oryctolagus cuniculus, UniProt P49144)
# T1 construct: Ring segments of the vein (4-5 mm in length) were cut and the endothelium gently removed; from tissue; host or cells: saphenous vein rings, endothelium removed, male New Zealand White rabbit
# Test: 5-HT1D-like receptor agonist activity: contraction of the rabbit isolated saphenous vein
# Parameters: species or system rabbit (New Zealand White)
# Details: rabbit isolated saphenous vein rings, endothelium removed, 37° C., pH 7.4; prazosin, idazoxan and indomethacin (1 μM each) present; read-out: EC50 (concentration of the compound which causes 50% of the maximum contraction effected by it)
# Procedure: The saphenous veins from both the left and right side were cleaned of fat and connective tissue and placed in Krebs solution (118 mM NaCl, 11 mM glucose, 25 mM NaHCO3, 4.7 mM KCl, 2.5 mM CaCl2.2H2 O, 1.2 mM KH2 PO4, and 1.2 mM MgSO4.7H2 O. Ring segments of the vein (4-5 mm in length) were cut and the endothelium gently removed. The segments were mounted in 10 mL baths containing Krebs buffer and were constantly aerated with 95% oxygen/5% carbon dioxide and maintained at 37° C. and pH 7.4 in order to record the isometric tension. A resting tension of 2.5 g was applied and the tissues allowed to equilibrate for 90 minutes, with washing every 15-20 minutes. After the equilibrium period, the rings were depolarized by the addition of two aliquots of KCl (80 mM final concentration) separated by a 20 minute washing period. The tissues were then exposed to prazosin, idazoxan and indomethacin (all 1 μM final concentration) for 30 minutes in order to exclude the actions of α1 - and α2 -adrenergic receptors and prostaglandin receptors respectively. […] Responses were calculated as a percentage of the maximal contraction evoked by 80 mM KCl. Only one compound was tested per preparation.
# EC50 represents the concentration of the compound which causes 50% of the maximum contraction effected by it.
# T1 sequence (P49144 whole entry): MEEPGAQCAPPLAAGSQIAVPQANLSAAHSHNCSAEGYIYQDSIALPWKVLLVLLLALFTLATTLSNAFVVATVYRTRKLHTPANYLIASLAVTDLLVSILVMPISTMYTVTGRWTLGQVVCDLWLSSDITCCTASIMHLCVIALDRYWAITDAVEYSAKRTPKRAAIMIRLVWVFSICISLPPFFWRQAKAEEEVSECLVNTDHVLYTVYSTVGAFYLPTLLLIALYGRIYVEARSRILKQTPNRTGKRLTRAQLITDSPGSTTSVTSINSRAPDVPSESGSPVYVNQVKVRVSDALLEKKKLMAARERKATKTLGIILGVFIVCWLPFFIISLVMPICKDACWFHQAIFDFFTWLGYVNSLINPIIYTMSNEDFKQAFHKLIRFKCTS
row,Structure (SMILES),EC50 [µM]
1,Cc1cc(C(C)(C)C)cc(C)c1Cc1ncc[nH]1,0.13
2,Cc1cc(Br)cc(C)c1Cc1ncc[nH]1,9.3
